The nature of data set [1]: Self-association of free NTs in buffer (fluorescence vs concentration, fluorescence anisotropy). Format: physicochemical. How it is done:
(§1) The apparent binding affinities of the NTs to the neuronal (nNOS) and endothelial (eNOS) isoforms of nitric oxide synthase (NOS) were assessed by changes in NT intrinsic fluorescence using two types of titrations. In the first method, aliquots (1 μL) were added to 100 μL buffer containing NOS protein (5 μM), and fluorescence emission spectra were recorded from 430–700 nm (λexcitation = 420 nm; slit widths = 5 nm) on a Shimadzu RF-5301PC fluorimeter. Spectra of intrinsic protein fluorescence and unbound NT were subtracted from protein/NT spectra and the fluorescence at 460 nm was plotted against NT concentration. In the second method, we measured fluorescence spectra at a fixed concentration of the NT (1–2µM) with a Cary Eclipse spectrophotometer set at T = 20 °C, with excitation wavelength at 390 nm and emission wavelengths in the range 410–610 nm; the PM was usually set at 600 V with slits of 10 nm at both excitation and emission. […] The steady-state fluorescence anisotropy was calculated using: r = (IVV − G × IVH)/(IVV + 2G × IVH) where IVV and IVH correspond to vertical and horizontal components, respectively, when the sample is excited with vertically polarized light, G is the G-factor accounting for the difference in the monochromator transmission between // and ⊥ polarized components (G = IHV/IHH). […]
(In general: Polarisation of emitted light reports the rotation of a fluorescent probe.)

A further data set has as its system NOS. Also noted: method as in PMID 19222033, PMID 17263536. Conditions: one and two-photon excitation; cited from earlier work.
On the set-up of data set [2]: method as in earlier work. Conditions: cited from earlier work.
Data set [3] relates to HUVEC cells. Conditions: cited from earlier work.
Data set [4] deals with HUVEC cells. Also noted: key to NO Formed upon Laser Excitation: +: NO formed under laser excitation; −: a lack of NO formed under laser excitation. Conditions: cited from earlier work; for NO produced in HUVEC cells upon light activation (in words): ref 15 (NT1), ref 19 (NT2_5), 19 (NT2_7).
In data set [5] the target is T1, nNOS (Rattus norvegicus, UniProt P29476). In words: Flavin reduction of nNOS upon light irradiation at 365 nm (absorption changes). Format: biochemical. Also noted: made in house; calmodulin purchased from Sigma. Conditions: for FAD/flavin reduction upon light excitation (in words): irradiation at 365 nm. How it is done: Light irradiation of the NT -nNOS complexes in the presence of NOHA, H4B, and Ca^2+/calmodulin was performed by a continuous irradiation with a Hg/Xe lamp (Hamamatsu, LC6 Lightningcure, 200 W) equipped with narrow-band interference filter to select 365 nm (Semrock FF01-370/36: center wavelength 370 nm, nominal bandwidth […]) during one minute. The absorption changes before and after irradiation were measured on a Cary5000 spectrophotometer from Agilent Technologies (Les Ulys, France).
100 mM NOHA, 100 mM Ca^2+, 1 µg recombinant calmodulin, 20 mM Tris Buffer at pH = 7.8, 100 mM NaCl; representative data out of 2 experiments.

Data set [6] deals with T1, nNOS. Also noted: made in house. Conditions: value used in the Cheng-Prusoff equation; no reference given; read-out: Km of NADPH for nNOS; cited from earlier work.
Data set [7] deals with T1, nNOS. Also noted: made in house; method as in PMID 30986510. Conditions: a: protein 5–10 µM, [NTs] = 0–50 µM; read-out: Apparent Kd nNOS; cited from earlier work.
For data set [8], the target named is T1, nNOS. In words: Fluorescence titration of NT binding to recombinant nNOS. Also noted: made in house. Conditions: [nNOS] = 0–10 µM, 10 mM Tris pH 7.2, 100 mM NaCl, read-out: Apparent Kd nNOS. How it is done:
as §1

This is an account of results in article PMC7070953, “Design of Light-Sensitive Triggers for Endothelial NO-Synthase Activation” (Antioxidants, 2020).

“Also recorded” adds a separate entry of the source. Read-outs that look alike come from different tables or passages of the source.

On to `O=C1OC2(c3ccc(O)cc3Oc3cc(O)ccc32)c2ccccc21` [fluorescein, reference compound], for which, in [1] (nNOS-free, NT3_3 at 5 µM, fluorescein as freely rotating monomer), the “Steady-state fluorescence anisotropy r” value came to 0.005.
As for `CCN(CCNC(=O)[C@H]1O[C@@H](n2cnc3c(N)ncnc32)[C@H](OP(=O)(O)O)[C@@H]1O)c1ccc(/C=C/C=C/c2ccc(N)cc2)cc1` [NT1], the “Time of initiation and synchronization of NOS catalysis after photoexcitation” value in the data set with NOS is 15–20 ps. Besides, the “Self-association (in words)” value in data set [2] is on record as “did not self-associate”. For the same compound, the “Not toxic to HUVEC up to concentration” value in the data set with HUVEC cells [3] is “up to 20 µM”. In the data set on HUVEC cells [4], the “NO Formed upon Laser Excitation” value is recorded as “+” and the “NO produced in HUVEC cells upon light activation (in words)” value (shortened to “NO produced”) was “produced NO upon light activation”. Also, at nNOS [5], the “FAD/flavin reduction upon light excitation (in words)” value is “reduced FAD upon light excitation”.
As to `NC(=O)C1=CN([C@@H]2O[C@H](COP(=O)(O)OP(=O)(O)OC[C@H]3O[C@@H](n4cnc5c(N)ncnc54)[C@H](OP(=O)(O)O)[C@@H]3O)[C@@H](O)[C@H]2O)C=CC1` [NADPH], the Km on nNOS [6] is 5.5 µM.
With `CN(Cc1cn(C[C@H]2O[C@@H](n3cnc4c(N)ncnc43)[C@H](OCC(=O)O)[C@@H]2O)nn1)c1ccc(/C=C/C=C/c2ccc(N)cc2)cc1` [NT2_7], in the data set on HUVEC cells [4], the “NO Formed upon Laser Excitation” value is reported as “−” and the “NO produced” value is “unable to generate NO”. Further, the Kd at nNOS [7] is 30 ± 4 µM.
`CN(Cc1cn(C[C@H]2O[C@@H](n3cnc4c(N)ncnc43)[C@H](OCC(=O)O)[C@@H]2OCC(=O)O)nn1)c1ccc(/C=C/C=C/c2ccc(N)cc2)cc1` [NT2_3]: the “NO Formed upon Laser Excitation” value in the data set on HUVEC cells [4] is “−”. Besides, the “FAD/flavin reduction upon light excitation (in words)” value at nNOS [5] was “could not reduce FAD”.
For `CN(Cc1cn(C[C@H]2O[C@@H](n3cnc4c(N)ncnc43)[C@H](O)[C@@H]2OCC(=O)O)nn1)c1ccc(/C=C/C=C/c2ccc(N)cc2)cc1` [NT2_5], the “Concentration above which fluorescence of free NT deviates from linearity (self-association)” value in [1] (free NT in buffer, fluorescence at 460 nm, order NT3_3 > NT3_5 > NT2_5 > NT3_7) is given as “above 5 µM”. The Kd at nNOS [8] (b: [NTs] = 1 or 2 µM) was determined as 1.3 ± 0.2 µM. The Kd at nNOS [8] (c: [NTs] = 2 µM, 100 mM NOHA) was determined as 4 ± 0.7 µM. The “Cytotoxicity in HUVEC cells above concentration” value with HUVEC cells [3] (second generation of NT) was “above 5 µM”. In the data set on HUVEC cells [4], the “NO Formed upon Laser Excitation” value was “+” and the “NO produced” value is on record as “produced NO upon light activation”. Besides, the “FAD/flavin reduction upon light excitation (in words)” value on nNOS [5] is “reduced FAD upon light excitation”. Further, the “Ground state (dark) FAD reduction, no light (in words)” value on nNOS [5] (no light) is reported as “some ground state reduction; also recorded: can reduce FAD in the ground state”.

One may read the Km as the concentration of substrate that gives half-maximal velocity.
